This passage reports IC50, melting point and CC50 results from paper PMC7762786, “The discovery of novel antitrypanosomal 4-phenyl-6-(pyridin-3-yl)pyrimidines” (European Journal of Medicinal Chemistry, 2021).

pIC50: −log10 of the molar value.

One data set has as its system Trypanosoma brucei rhodesiense STIB900 (bloodstream trypomastigotes). The data set can be described thus: In vitro antitrypanosomal activity, Alamar Blue assay. The class given is cell-based. Particulars: 70 h, STIB900 bloodstream forms, 70 h incubation, read-out: IC50 T. b. rhodesiense. On the procedure:
Assays were performed as described by Bernal et al.. In vitro antitrypanosomal activities of compounds were determined against Trypanosoma brucei rhodesiense STIB900 (bloodstream trypomastigotes) where the parasitic stock was isolated in 1982 from a human patient in Tanzania. […] Then, 10 μl of Alamar Blue (resazurin, 12.5 mg in 100 mL double-distilled water) was added to each well and incubation continued for a further 2–4 h. Plates were read with a Spectramax Gemini XS microplate fluorometer (Molecular Devices Cooperation, Sunnyvale, CA, USA) using an excitation wavelength of 536 nm and an emission wavelength of 588 nm.
Background: The colour change of resazurin is a common sign of viable cells or microbes.
The term pIC50 denotes −log10 of the IC50, conventionally taken in molar units. For the molecule `c1cncc(-c2cc(-c3ccc4c(c3)OCO4)ncn2)c1` [Compound 10, 4-(2H-1,3-benzodioxol-5-yl)-6-(pyridin-3-yl)pyrimidine], the pIC50 was 5.17.
`Nc1nc(-c2cccnc2)cc(-c2ccc3c(c2)OCO3)n1` [Compound 21, 4-(2H-1,3-benzodioxol-5-yl)-6-(pyridin-3-yl)pyrimidin-2-amine]: the negative-log IC50 (pIC50) was 4.89.

System in another data set: not given
Assay: not given
Conditions: not given
By melting point is commonly meant the temperature of the solid-liquid transition. Take `COc1cccc(-c2cc(-c3cccnc3)ncn2)c1` [Compound 5, 4-(3-Methoxyphenyl)-6-(pyridin-3-yl)pyrimidine]: the melting point was in the range of 124 to 125 °C.
In turn, `c1cncc(-c2cc(-c3cccnc3)ncn2)c1` [Compound 2, 4,6-Bis(Pyridin-3-yl)pyrimidine] showed a melting point of 206 to 207 °C.
The molecule `COc1ccc(-c2cc(-c3cccnc3)nc(N)n2)cc1OC` [Compound 20, 4-(3,4-Dimethoxyphenyl)-6-(pyridin-3-yl)pyrimidin-2-amine] yielded a melting point of 165 to 167 °C.
Molecule `COc1cccc(-c2cc(-c3cccnc3)nc(N)n2)c1` [Compound 15, 4-(3-Methoxyphenyl)-6-(pyridin-3-yl)pyrimidin-2-amine] gave a melting point of 162 to 164 °C.
Same read-out and setting: with `Nc1nc(-c2cccnc2)cc(-c2cccc(Br)c2)n1` [Compound 16, 4-(3-Bromophenyl)-6-(pyridin-3-yl)pyrimidin-2-amine] the figure was 169 to 171 °C; with `COc1ccc(-c2cc(-c3cccnc3)ncn2)cc1` [Compound 8, 4-(4-Methoxyphenyl)-6-(pyridin-3-yl)pyrimidine], 165 to 167 °C.
`COc1ccc(-c2cc(-c3cccnc3)ncn2)cc1OC` [Compound 9, 4-(3,4-Dimethoxyphenyl)-6-(pyridin-3-yl)pyrimidine] registered a melting point of 131 to 134 °C.
On the same count and under the same terms, with `COc1ccccc1-c1cc(-c2cccnc2)ncn1` [Compound 3, 4-(2-Methoxyphenyl)-6-(pyridin-3-yl)pyrimidine] the figure was 102 to 104 °C.
`Nc1nc(-c2ccc(Br)cc2)cc(-c2cccnc2)n1` [Compound 19, 4-(4-Bromophenyl)-6-(pyridin-3-yl)pyrimidin-2-amine] yielded a melting point of 210 to 211 °C.
`Nc1nc(-c2cccnc2)cc(-c2cccnc2)n1` [Compound 12, 4,6-Bis(Pyridin-3-yl)pyrimidin-2-amine] showed a melting point of 229 to 230 °C.
Molecule `c1ccc(-c2cc(-c3cccnc3)ncn2)cc1` [Compound 1, 4-Phenyl-6-(pyridin-3-yl)pyrimidine] registered a melting point of 116 to 118 °C.
Still for that read-out and setting: under `COc1ccc(-c2cc(-c3cccnc3)nc(N)n2)cc1` [Compound 18, 4-(4-Methoxyphenyl)-6-(pyridin-3-yl)pyrimidin-2-amine] stands 163 to 165 °C.
Take `Nc1nc(-c2cccnc2)cc(-c2cccc(F)c2)n1` [Compound 17, 4-(3-Fluorophenyl)-6-(pyridin-3-yl)pyrimidin-2-amine]: the melting point fell in the range of 196 to 198 °C.
Molecule `Nc1nc(-c2cccnc2)cc(-c2ccccc2Br)n1` [Compound 14, 4-(2-Bromophenyl)-6-(pyridin-3-yl)pyrimidin-2-amine] returned a melting point of 149 to 152 °C.
`Nc1nc(-c2ccccc2)cc(-c2cccnc2)n1` [Compound 11, 4-Phenyl-6-(pyridin-3-yl)pyrimidin-2-amine]: the melting point was 172 to 175 °C.
`c1cncc(-c2cc(-c3ccc4c(c3)OCO4)ncn2)c1` [Compound 10, 4-(2H-1,3-benzodioxol-5-yl)-6-(pyridin-3-yl)pyrimidine] yielded a melting point of 173 to 175 °C.
`Fc1cccc(-c2cc(-c3cccnc3)ncn2)c1` [Compound 7, 4-(3-Fluorophenyl)-6-(pyridin-3-yl)pyrimidine]: the melting point fell in the range of 193 to 195 °C.
The same measure, in the same setting: with `Brc1cccc(-c2cc(-c3cccnc3)ncn2)c1` [Compound 6, 4-(3-Bromophenyl)-6-(pyridin-3-yl)pyrimidine] the figure was 162 to 163 °C; with `Nc1nc(-c2cccnc2)cc(-c2ccc3c(c2)OCO3)n1` [Compound 21, 4-(2H-1,3-benzodioxol-5-yl)-6-(pyridin-3-yl)pyrimidin-2-amine], 236 to 238 °C.

For a further data set, the system named is L6 cells (rat skeletal myoblasts). The data set can be described thus: In vitro cytotoxicity with L6 cells, Alamar Blue assay. It counts as cell-based.
Conditions: not given
As for the experimental part:
(§1) In vitro cytotoxicity with L6 cells (a […] cell line derived from rat skeletal myoblasts) were performed in 96-well microtiter plates with each well containing 100 μl of RPMI 1640 medium supplemented with 1% L-glutamine (200 mM) and 10% fetal bovine serum and 4000 L6 cells. Serial drug dilutions from 100 to 0.002 μg/mL were prepared and after 70 h of incubation the plates were microscopically inspected to ensure the validity of control wells and sterile conditions. Then, 10 μl of Alamar Blue was added to each well and the plates incubated for an additional 2 h. Plates were read with a Spectramax Gemini XS microplate fluorometer (Molecular Devices Cooperation, Sunnyvale, CA, USA) using an excitation wave length of 536 nm and an emission wave length of 588 nm.
By CC50 is commonly meant the concentration at which the toxic effect on the cells reaches its halfway point. Lower therefore signals greater toxicity to the cells. “4-(2-Methoxyphenyl)-6-(pyridin-4-yl)pyrimidin-2-amine [Compound 25]” displayed a CC50 greater than 70 µM.
As to “4-(2-Methoxyphenyl)-6-(pyridin-4-yl)pyrimidine [Compound 24]”, the CC50 is greater than 100 µM.
Take “4-(2-Methoxyphenyl)-6-(pyridin-2-yl)pyrimidin-2-amine [Compound 23]”: the CC50 was greater than 100 µM.

System in another data set: not listed separately
The data set is described as above. Particulars: L6 cells (rat skeletal myoblasts); L6 rat skeletal myoblasts, 70 h incubation. It counts as cell-based, rat. As for the experimental part:
as §1
For `c1cncc(-c2cc(-c3ccc4c(c3)OCO4)ncn2)c1` [Compound 10, 4-(2H-1,3-benzodioxol-5-yl)-6-(pyridin-3-yl)pyrimidine], the CC50 at 70 h was greater than 100 µM.
Consider `Nc1nc(-c2cccnc2)cc(-c2ccc3c(c2)OCO3)n1` [Compound 21, 4-(2H-1,3-benzodioxol-5-yl)-6-(pyridin-3-yl)pyrimidin-2-amine], for which the CC50 at 70 h was greater than 100 µM.

Staying with this data set, now noted: L6 rat skeletal myoblasts, 70 h incubation.
For the molecule `COc1cc([C@@H]2c3cc4c(cc3[C@H](O)[C@H]3COC(=O)[C@H]23)OCO4)cc(OC)c1OC` [Podophyllotoxin, reference compound], the CC50 at 70 h came to 0.019 µM.
